From PubChem BioAssay AID256 (DTP/NCI, 2004)
Where “and” joins values, the source holds several entries; their conditions need not be identical. Equal entries are not always repeated. Inconclusive results and toxic doses are left out. The calls were made as follows: active = survival T/C of 150% or more; inactive = T/C below 125% in these data.

Test system: CD2F1 mice, L1210 leukemia ip, survival T/C
Test: NCI In Vivo Anticancer Drug Screen. Data for tumor model L1210 Leukemia (intraperitoneal) in CD2F1 (CDF1) mice
Conditions: higher = longer survival
Outline: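 Ratio T/C, where T is the treated-group value and C the vehicle-dosed control value, from mice implanted with a transplantable tumor.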

[1] = endpoint: mean survival time, dose: 50.0 mg/kg/injection, schedule: Q01DX009 (ip), vehicle: saline with Tween-80
[2] = endpoint: mean survival time, dose: 100.0 mg/kg/injection, schedule: Q01DX009 (ip), vehicle: saline with Tween-80
[3] = endpoint: mean survival time, dose: 50.0 mg/kg/injection, schedule: Q01DX001 (ip), vehicle: saline with Tween-80
[4] = endpoint: mean survival time, dose: 200.0 mg/kg/injection, schedule: Q01DX001 (ip), vehicle: saline with Tween-80
[5] = endpoint: mean survival time, dose: 400.0 mg/kg/injection, schedule: Q01DX001 (ip), vehicle: saline with Tween-80
[6] = endpoint: mean survival time, dose: 100.0 mg/kg/injection, schedule: Q01DX001 (ip), vehicle: saline with Tween-80

Measured: T/C

C#CC(O)C(CC)CCCC (centres undefined)
inactive: [1] 99 % of control | [2] 94 % of control

CCOC(=O)C1=C(C)/C(=C/c2[n-]c(C)c(C(=O)OCC)c2C)N=C1C.CCOC(=O)C1=C(C)/C(=C/c2[n-]c(C)c(C(=O)OCC)c2C)N=C1C.[Co+2]
inactive: [3] 91 % of control | [4] 87 % of control | [5] 91 % of control

CCOC(=O)Nc1n[nH]c(=S)[nH]c1=O
inactive: endpoint: mean survival time, dose: 100.0 mg/kg/injection, schedule: Q01DX001 (ip), vehicle: carboxymethylcellulose (CMC) 96 % of control | endpoint: mean survival time, dose: 200.0 mg/kg/injection, schedule: Q01DX001 (ip), vehicle: carboxymethylcellulose (CMC) 100 % of control | endpoint: mean survival time, dose: 400.0 mg/kg/injection, schedule: Q01DX001 (ip), vehicle: carboxymethylcellulose (CMC) 96 % of control

CC(C)=CC(C)=Nc1ccccc1
inactive: endpoint: mean survival time, dose: 100.0 mg/kg/injection, schedule: Q01DX001 (ip), vehicle: saline 90 % of control | endpoint: mean survival time, dose: 100.0 mg/kg/injection, schedule: Q04DX003 (ip), vehicle: saline 102 % of control | endpoint: mean survival time, dose: 200.0 mg/kg/injection, schedule: Q01DX001 (ip), vehicle: saline 96 % of control | endpoint: mean survival time, dose: 200.0 mg/kg/injection, schedule: Q04DX003 (ip), vehicle: saline 96 % of control | endpoint: mean survival time, dose: 400.0 mg/kg/injection, schedule: Q01DX001 (ip), vehicle: saline 98 % of control | endpoint: mean survival time, dose: 400.0 mg/kg/injection, schedule: Q04DX003 (ip), vehicle: saline 104 % of control

N#Cc1nc(-c2ccco2)c(-c2ccco2)nc1C#N
inactive: endpoint: mean survival time, dose: 25.0 mg/kg/injection, schedule: Q04DX002 (ip), vehicle: saline with Tween-80 102 % of control | endpoint: mean survival time, dose: 50.0 mg/kg/injection, schedule: Q04DX002 (ip), vehicle: saline with Tween-80 90 % of control | [6] 96 % of control | endpoint: mean survival time, dose: 100.0 mg/kg/injection, schedule: Q04DX002 (ip), vehicle: saline with Tween-80 90 % of control

Cc1c2cc3c(cc2cc2c4cc5c(cc4cc[n+]12)OCO5)OCO3 (tested in a mixture with another compound)
inactive: endpoint: mean survival time, dose: 6.25 mg/kg/injection, schedule: Q04DX003 (ip), vehicle: saline 116 % of control and 121 % of control | endpoint: mean survival time, dose: 18.75 mg/kg/injection, schedule: Q04DX003 (ip), vehicle: saline 95 % of control | endpoint: mean survival time, dose: 25.0 mg/kg/injection, schedule: Q04DX003 (ip), vehicle: saline 115 % of control and 90 % of control

CCN1C(=O)/C(=C\C=C2/SCCN2C)OC1=S
inactive: endpoint: mean survival time, dose: 75.0 mg/kg/injection, schedule: Q01DX001 (ip), vehicle: other 92 % of control | endpoint: mean survival time, dose: 150.0 mg/kg/injection, schedule: Q01DX001 (ip), vehicle: other 100 % of control | endpoint: mean survival time, dose: 300.0 mg/kg/injection, schedule: Q01DX001 (ip), vehicle: other 94 % of control

S=c1nn[nH]n1C1CCCCC1
inactive: endpoint: mean survival time, dose: 25.0 mg/kg/injection, schedule: Q04DX003 (ip), vehicle: saline with Tween-80 96 % of control | endpoint: mean survival time, dose: 50.0 mg/kg/injection, schedule: Q04DX003 (ip), vehicle: saline with Tween-80 98 % of control | endpoint: mean survival time, dose: 100.0 mg/kg/injection, schedule: Q04DX003 (ip), vehicle: saline with Tween-80 92 % of control

CC1OC(=O)C2(C(C)C)CC12 (centres undefined)
inactive: endpoint: mean survival time, dose: 9.5 mg/kg/injection, schedule: Q01DX001 (ip), vehicle: other 103 % of control | endpoint: mean survival time, dose: 19.0 mg/kg/injection, schedule: Q01DX001 (ip), vehicle: other 106 % of control

CC(C)C1C(O)C23CCC4C(C)(CO)CCCC4(C)C2CC13 (centres undefined)
inactive: [6] 96 % of control | [4] 94 % of control | [5] 94 % of control

O=P(OCCCO)(N1CC1)N1CC1
inactive: endpoint: mean survival time, dose: 25.0 mg/kg/injection, schedule: Q01DX001 (ip), vehicle: other 101 % of control | endpoint: mean survival time, dose: 50.0 mg/kg/injection, schedule: Q01DX001 (ip), vehicle: other 101 % of control | endpoint: mean survival time, dose: 100.0 mg/kg/injection, schedule: Q01DX001 (ip), vehicle: other 102 % of control | endpoint: mean survival time, dose: 200.0 mg/kg/injection, schedule: Q01DX001 (ip), vehicle: other 98 % of control | endpoint: mean survival time, dose: 400.0 mg/kg/injection, schedule: Q01DX001 (ip), vehicle: other 96 % of control

Nc1ccc(OCc2nc(N)nc(N)c2-c2ccc(Cl)cc2)cc1
inactive: [3] 95 % of control | [6] 101 % of control | [4] 93 % of control

O=C(OCC1OC(n2cnc(=O)[nH]c2=O)C(OC(=O)c2ccccc2)C1OC(=O)c1ccccc1)c1ccccc1 (centres undefined)
inactive: endpoint: mean survival time, dose: 1.25 mg/kg/injection, schedule: Q04DX003 (ip), vehicle: saline 96 % of control | endpoint: mean survival time, dose: 2.5 mg/kg/injection, schedule: Q04DX003 (ip), vehicle: saline 101 % of control | endpoint: mean survival time, dose: 5.0 mg/kg/injection, schedule: Q04DX003 (ip), vehicle: saline 98 % of control | endpoint: mean survival time, dose: 10.0 mg/kg/injection, schedule: Q04DX003 (ip), vehicle: saline 101 % of control | endpoint: mean survival time, dose: 20.0 mg/kg/injection, schedule: Q04DX003 (ip), vehicle: saline 98 % of control | endpoint: mean survival time, dose: 40.0 mg/kg/injection, schedule: Q04DX003 (ip), vehicle: saline 98 % of control

OCCCN1CCCCC1CO (centres undefined)
inactive: endpoint: mean survival time, dose: 12.5 mg/kg/injection, schedule: Q01DX009 (ip), vehicle: saline 101 % of control and 103 % of control | endpoint: mean survival time, dose: 25.0 mg/kg/injection, schedule: Q01DX009 (ip), vehicle: saline 98 % of control and 100 % of control | endpoint: mean survival time, dose: 50.0 mg/kg/injection, schedule: Q01DX009 (ip), vehicle: saline 97 % of control and 98 % of control | endpoint: mean survival time, dose: 100.0 mg/kg/injection, schedule: Q01DX009 (ip), vehicle: saline 97 % of control and 98 % of control | endpoint: mean survival time, dose: 200.0 mg/kg/injection, schedule: Q01DX009 (ip), vehicle: saline 98 % of control | endpoint: mean survival time, dose: 400.0 mg/kg/injection, schedule: Q01DX009 (ip), vehicle: saline 91 % of control and 97 % of control | endpoint: median survival time, dose: 400.0 mg/kg/injection, schedule: Q01DX009 (ip), vehicle: saline 103 % of control | endpoint: median survival time, dose: 800.0 mg/kg/injection, schedule: Q01DX009 (ip), vehicle: saline 97 % of control

CCOC(=O)N/N=C/C(Br)=C\c1ccccc1
inactive: endpoint: mean survival time, dose: 12.5 mg/kg/injection, schedule: Q01DX009 (ip), vehicle: saline with Tween-80 97 % of control | endpoint: mean survival time, dose: 25.0 mg/kg/injection, schedule: Q01DX009 (ip), vehicle: saline with Tween-80 92 % of control | [1] 92 % of control

c1ccc2c(c1)ccc1c[n+]3ccccc3cc12
inactive: endpoint: mean survival time, dose: 1.25 mg/kg/injection, schedule: Q01DX009 (ip), vehicle: saline with Tween-80 95 % of control | endpoint: mean survival time, dose: 5.0 mg/kg/injection, schedule: Q04DX003 (ip), vehicle: saline sonified 96 % of control

O.O.O.O.[Fe].[Fe].[Fe].[NH-]c1c(C(=O)O)ncn1C1[OH+]C(CO)C(O)C1O.[NH-]c1c(C(=O)O)ncn1C1[OH+]C(CO)C(O)C1O (centres undefined)
inactive: endpoint: mean survival time, dose: 12.5 mg/kg/injection, schedule: Q01DX005 (ip), vehicle: distilled water + Tween-80 94 % of control | endpoint: mean survival time, dose: 25.0 mg/kg/injection, schedule: Q01DX005 (ip), vehicle: distilled water + Tween-80 97 % of control | endpoint: mean survival time, dose: 50.0 mg/kg/injection, schedule: Q01DX005 (ip), vehicle: distilled water + Tween-80 103 % of control | endpoint: mean survival time, dose: 200.0 mg/kg/injection, schedule: Q01DX005 (ip), vehicle: distilled water + Tween-80 88 % of control

O=C(O)CS(=O)(=O)O
inactive: endpoint: mean survival time, dose: 50.0 mg/kg/injection, schedule: Q04DX002 (ip), vehicle: saline 100 % of control | endpoint: mean survival time, dose: 100.0 mg/kg/injection, schedule: Q04DX002 (ip), vehicle: saline 100 % of control | endpoint: mean survival time, dose: 200.0 mg/kg/injection, schedule: Q04DX002 (ip), vehicle: saline 100 % of control

CCOC(=O)Nc1cc(C(F)(F)F)cc(C(F)(F)F)c1
inactive: [2] 94 % of control | endpoint: mean survival time, dose: 200.0 mg/kg/injection, schedule: Q01DX009 (ip), vehicle: saline with Tween-80 94 % of control | endpoint: mean survival time, dose: 400.0 mg/kg/injection, schedule: Q01DX009 (ip), vehicle: saline with Tween-80 96 % of control
